Common to all, as to assay type: cell-based
For assay [1], the system named is Trypanosoma brucei rhodesiense STIB900. The note with it: for pIC50: 70 h; for active against T. brucei rhodesiense: statement in words. The protocol: This stock was isolated in 1982 from a human patient in Tanzania and after several mouse passages cloned and adapted to axenic culture conditions. Minimum Essential Medium (50 μl) supplemented with 25 mM HEPES, 1 g/l additional glucose, 1% MEM non-essential amino acids (100×), 0.2 mM 2-mercaptoethanol, 1 mM Na-pyruvate and 15% heat inactivated horse serum was added to each well of a 96-well microtiter plate. Serial drug dilutions of eleven 3-fold dilution steps covering a range from 100 to 0.002 μg/ml were prepared. Then 4×10^3 bloodstream forms of T. b. rhodesiense STIB 900 in 50 μl was added to each well and the plate incubated at 37° C. under a 5% CO2 atmosphere for 70 h. 10 μl Alamar Blue (resazurin, 12.5 mg in 100 ml double-distilled water) was then added to each well and incubation continued for a further 2-4 h. Then the plates were read with a Spectramax Gemini XS microplate fluorometer (Molecular Devices Cooperation, Sunnyvale, Calif., USA) using an excitation wave length of 536 nm and an emission wave length of 588 nm. The IC50 values were calculated by linear regression from the sigmoidal dose inhibition curves using SoftmaxPro software (Molecular Devices Cooperation, Sunnyvale, Calif., USA). Melarsoprol (Arsobal Sanofi-Aventis, received from WHO) is used as control.

Assay [2] has as its system S. aureus (NCTC 6571) biofilm. Put plainly: Single species biofilm treatment, crystal violet assay. The settings on record: 100 μM peptoid, 24 hours, FIG. 17B. The protocol: (§1) C. albicans (NCTC 3179) was subcultured aerobically on Sabouraud agar plates and propagated in yeast peptone dextrose broth. E. coli (ATCC 29522) and S. aureus (NCTC 6571) were grown on blood agar plates and propagated in brain heart infusion (BHI) broth.
(§2) Overnight cultures of C. albicans were washed and resuspended in a modified RPMI-1640 (Sigma-Aldrich, St Louis, USA) medium to yield an inoculum of 1.0×10^6 cells/ml. Overnight cultures of S. aureus or E. coli were washed and resuspended in brain heart infusion broth (Oxoid, Basingstoke, UK) to yield an inoculum of 5.0×10^6 cells/ml. A total volume of 100 μl of each inoculum was added to microtitre plate wells (Thermo Fisher Scientific, Roskilde, Denmark). An initial biofilm was allowed to form for 4 hours. Wells were washed three times with 200 μl PBS to facilitate removal of planktonic cells and the biofilms were then treated with 100 μM of peptoids 1-4 in the appropriate broth. Plates were incubated for a further 24 hours to allow biofilm maturation. After removal of planktonic cells by washing, biofilms were quantified by the crystal violet assay or by PMA-qPCR.
(§3) Biofilm quantification by crystal violet assay Washed biofilms were fixed with 100 μl methanol for 10 minutes. Following removal of methanol, the wells were air dried and stained with crystal violet solution (Clin-Tech Ltd, Guildford, UK) for 20 minutes at room temperature. Excess stain was removed by washing, the plate was then air dried and bound crystal violet was re-solubilised in 16 μl 33% acetic acid prior to reading at 570 nm in a microtitre plate reader (Tecan GENios, Ziirich, Switzerland).

Assay [3] relates to Pseudomonas aeruginosa laboratory strain PAO2. How it is done:
(§4) Species used in MIC assays included gram-negative Escherichia coli K12 W3110, Pseudomonas aeruginosa laboratory strain PAO2 and Serratia marcescens laboratory strain and gram-positive Staphylococcus aureus NCTC 6571 and Micrococcus luteus laboratory strain.
(§5) Bacterial cultures were prepared by streaking the bacterial strains on to agar plates with an inoculation loop and incubating overnight at 37° C. A single colony was then selected and placed in 5 mL of Iso-Sensitest broth using an inoculation loop and incubated at 37° C. with shaking overnight.
(§6) MIC values were attained according to the protocol described by J. M. Andrews et al. [J. M. Andrews, J. Antimicrob. Chemother., 2001, 48, 5-16] and were conducted in 96-well microtitre plates in triplicate. 10-50 μL of each overnight culture was inoculated into 1.2 mL of Iso-Sensitest broth and grown at 37° C. with shaking. […] The inoculum was diluted ten-fold with Iso-Sensitest broth before use (to ˜10^3 cfu/spot). Peptide solutions were initially dissolved in DMSO (5 mg mL^−1) and then diluted further with Iso-Sensitest broth to achieve a concentration range of 4 mgL^−1 to 512 mgL^−1 using 2-fold serial dilutions. Samples were vortexed between dilutions where necessary to aid dissolution. 50 μL of inoculum and 50 μL of peptide solution were added to each test well to achieve a final concentration range of 2 mgL^−1 to 256 mgL^−1. Separate dilutions of ampicillin and DMSO were made up in a similar manner to act as a positive antibacterial control and a +DMSO control, respectively. 50 μL of inoculum and 50 μL of Iso-Sensitest broth were used as a positive control and 100 μL of inoculum was used as a negative control. Positive and negatives controls were conducted multiple times in parallel per plate. […] Quantitative data were attained as A650nm values using a BioTek® Synergy™ H4 Hybrid Multi-Mode Microplate Reader.

In assay [4] the test system is Escherichia coli K12 W3110. How it is done: as §4, §5, §6
The test system of assay [5] is Staphylococcus aureus NCTC 6571. How it is done:
as §4, §5, §6

Assay [6] has as its system Serratia marcescens laboratory strain. The note with it: 16 h. The protocol:
as §4, §5, §6

Assay [7] relates to E. coli (ATCC 29522) biofilm. Put plainly: Single species biofilm treatment, crystal violet assay. The note with it: 100 μM peptoid, 24 hours, FIG. 17C. How it is done: as §1, §2, §3
[8] abbreviates: second figure of cell, 37° C., 16 h, Iso-Sensitest broth.
Setting [9] is: second figure of cell, 37° C., Iso-Sensitest broth.

pIC50: −log10 of the molar value. Read-outs that look alike come from different tables or passages of the source. Where a SMILES comes first, the peptide text is derived from it. [ ]: non-standard residue; d: D form. Nspe = C[C@H](NCC(=O)O)c1ccccc1; NhArg = N=C(N)NCCCCNCC(=O)O; Nlys = NCCCCNCC(=O)O

The term pIC50 denotes the negative decadic logarithm of the IC50, by convention in mol/L. Low values mean a large IC50, high ones a small IC50. In assay [1], `C[C@@H](c1ccccc1)N(CC(N)=O)C(=O)CN(C(=O)CN(CCCCNC(=N)N)C(=O)CN(C(=O)CN(C(=O)CN(CCCCNC(=N)N)C(=O)CN(C(=O)CN(C(=O)CN(CCCCN)C(=O)CN(C(=O)CN(C(=O)CNCCCCN)[C@@H](C)c1ccccc1)[C@@H](C)c1ccccc1)[C@@H](C)c1ccccc1)[C@@H](C)c1ccccc1)[C@@H](C)c1ccccc1)[C@@H](C)c1ccccc1)[C@@H](C)c1ccccc1` [Peptoid 1, (NLys-Nspe-Nspe)2(NhArg-Nspe-Nspe)2] (H-[Nlys][Nspe][Nspe][Nlys][Nspe][Nspe][NhArg][Nspe][Nspe][NhArg][Nspe][Nspe]-NH2; N-terminus assumed) gave a pIC50 of 5.17. The “active against T. brucei rhodesiense” value in assay [1] is reported as “active”. For the same molecule, in assay [2], the “activity against the S. aureus biofilm” value is “strongest anti-bacterial activity”. The “MIC P. aeruginosa” value amounted to 34 µM in assay [3] (laboratory strain PAO2, 16 h) and 64 mgL^−1 in assay [3] (setting [8]). Also, the “MIC E. coli” value in assay [4] (K12, 16 h) worked out at 17 µM; in assay [4] (setting [8]), 32 mgL^−1. In addition, the “MIC S. aureus” value in assay [5] (NCTC 6571, 16 h) is 17 µM; in assay [5] (setting [8]), 32 mgL^−1. Further, the “MIC S. marcescens” value in assay [6] (laboratory strain) worked out at 134 µM; in assay [6] (setting [9]), 256 mgL^−1.
With `C[C@@H](c1ccccc1)N(CC(N)=O)C(=O)CN(C(=O)CN(CCCCN)C(=O)CN(C(=O)CN(C(=O)CN(CCCCNC(=N)N)C(=O)CN(C(=O)CN(C(=O)CN(CCCCN)C(=O)CN(C(=O)CN(C(=O)CNCCCCNC(=N)N)[C@@H](C)c1ccccc1)[C@@H](C)c1ccccc1)[C@@H](C)c1ccccc1)[C@@H](C)c1ccccc1)[C@@H](C)c1ccccc1)[C@@H](C)c1ccccc1)[C@@H](C)c1ccccc1` [Peptoid 4, [(NhArg-Nspe-Nspe)(NLys-Nspe-Nspe)]2] (H-[NhArg][Nspe][Nspe][Nlys][Nspe][Nspe][NhArg][Nspe][Nspe][Nlys][Nspe][Nspe]-NH2; N-terminus assumed), the pIC50 in assay [1] was 4.78. The “active against T. brucei rhodesiense” value in assay [1] is “active”. Moreover, in assay [7], the “activity against the E. coli biofilm” value is listed as “strongest anti-bacterial activity”. The “MIC P. aeruginosa” value in assay [3] (laboratory strain PAO2, 16 h) worked out at 67 µM; in assay [3] (setting [8]), 128 mgL^−1. Further, the “MIC E. coli” value was found to be 17 µM in assay [4] (K12, 16 h) and 32 mgL^−1 in assay [4] (setting [8]). Further, the “MIC S. aureus” value in assay [5] (NCTC 6571, 16 h) turned out to be 17 µM; in assay [5] (setting [8]), 32 mgL^−1. The “MIC S. marcescens” value in assay [6] (laboratory strain) was > 134 µM; in assay [6] (setting [9]), > 256 mgL^−1.

Values taken from patent US20180201647A1, “Peptoid” (The University of Durham, priority 2015, published 2018).
